Data taken from US20160115540A1, “PRODRUGS AND DRUGS” (Biogen MA Inc., priority 2013, published 2016).
Structures can show the parent of a compound that is named as a salt.

Tested on: kidney
Test: Transcriptional profiling on Affymetrix GeneChips, single dose, naïve mice: kidney
Type: in vivo, C57BL/6 mice
Details: 100MMF-vs-Veh
Procedure: Treated mice were sacrificed at 2, 7, or 12 hours. Tissues (liver, spleen, kidney, jejunum, cortex, hippocampus, striatum and whole blood) were collected and analyzed by transcriptional profiling on mouse Affymetrix GeneChips.
Tissues (liver, spleen, kidney, jejunum, cortex, hippocampus, striatum and whole blood) were collected and analyzed by transcriptional profiling on mouse Affymetrix GeneChips.
Animals were exposed to CO2 and whole blood collected via cardiac puncture. Two 100 μl aliquots of whole blood were collected in 1.5 mL microcentrifuge tubes and snap frozen in liquid nitrogen. Peripheral (liver, spleen, kidney and jejunum) and CNS brain (cerebellum, hippocampus, striatum and cortex) tissues were harvested and snap frozen in liquid nitrogen, with special care taken to collect tissues of similar size and from the same location. All samples were stored at −80° C. until RNA extraction was conducted.
For RNA preparation, frozen tissues were placed in 2 mL RNAse-free 96-well blocks with 1.5 mL QIAzol Lysis Reagent (QIAgen) and a 3.2 mm stainless steel bead (BioSpec Products, Bartlesville, Okla.). Tissues were disrupted for four cycles of 45 seconds in a Mini-Beadbeater (Biospec Products). RNA was extracted in chloroform and the aqueous phase was mixed with an equal volume of 70% ethanol. Extracted RNA was applied to RNeasy 96 plates and purified by the spin method according to the manufacturer's protocol (RNeasy 96 Universal Tissue Protocol, QIAgen, Hilden Germany).
Automated sample amplifications and biotin labelings were carried out using the NuGEN Ovation RNA Amplification system V2 (Cat #3100), Ovation WB reagent (Cat #1300) and Encore Biotin module (Cat #4200) (NuGEN Technologies, Inc, San Carlos, Calif.) according to manufacturer's recommendations using an Arrayplex automated liquid handler (Beckman Coulter, Indianapolis, Ind.). Two micrograms of biotin labeled sscDNA probe were hybridized to Affymetrix GeneChip Affymetrix HT_MG-430_PM plate arrays with modified conditions as described in Allaire et al. Washing and staining of the hybridized arrays were completed as described in the GeneChip Expression analysis technical manual for HT plate arrays using the Genechip® Array Station (Affymetrix, Santa Clara, Calif.) with modifications as described in Allaire et al. The processed GeneChip® plate arrays were scanned using GeneTitan scanner (Affymetrix, Santa Clara, Calif.).
Affymetrix scans were subject to quality control (QC) measures. These tests included a visual inspection of the distribution of raw signal intensities and an assessment of RNA degradation, relative log expression (RLE), and normalized unsealed standard error (NUSE). All sample scans that passed these QC metrics were included in the analysis.
All CEL files were subjected to GC-content-based Robust Multi-array Average (GCRMA) normalization (version 2.20.0) (Irizarry R A, et al. Nucleic Acids Res 2003; 31:e15; Li C, et al. Genome Biol 2001; 2:[…]0032). Expression levels were log (base 2) transformed.
All calculations and analyses were carried out using R (version 2.11.1) and Bioconductor computational tools (Gentleman R. Springer Science+Business Media 2005).

SMILES: COC(=O)/C=C/C(=O)O [MMF, monomethyl fumarate]
- FC 1456319_PM_at (2 h): −2.06
- FC 1456955_PM_at (2 h): 1.60
- FC 1457189_PM_at (2 h): −1.70
- FC 1457586_PM_at (2 h): 1.61
- FC 1458096_PM_at (2 h): −1.87
- FC 1458798_PM_at (2 h): −1.56
- FC 1459091_PM_at (2 h): 2.78
- FC 1459358_PM_at (2 h): 1.56
- FC 1459516_PM_at (2 h): 1.71
- FC 1459774_PM_at (2 h): 1.63
- FC A330023F24Rik 1460033_PM_at (2 h): 1.50
- FC AA986715 1459467_PM_at (2 h): 1.68
- FC Akr1c19 (1455454_PM_at) (2 h): 1.56
- FC Ankrd11 1458452_PM_at (2 h): 1.56
- FC Arl5b 1455166_PM_at (2 h): 1.64
- FC BC038331 1458295_PM_at (2 h): −1.57
- FC Bcl7a 1458503_PM_at (2 h): −1.54
- FC Cggbp1 1455658_PM_at (2 h): 1.51
- FC Gclc (1455959_PM_s_at) (2 h): 1.53
- FC LOC676974 1456909_PM_at (2 h): 1.57
- FC LOC100504796 1457129_PM_at (2 h): −1.55
- FC Lonrf1 1455665_PM_at (2 h): 1.98
- FC Nufip2 1455387_PM_at (2 h): 1.61
- FC Per3 1458176_PM_at (2 h): −1.57
- FC Phf13 1455175_PM_at (2 h): 1.51
- FC Pkp2 1460511_PM_at (2 h): 1.67
- FC Ptprg 1456070_PM_at (2 h): −2.31
- FC Snx29 1456922_PM_at (2 h): −1.74
- FC Tnfsf10 1459913_PM_at (2 h): −1.60
- FC Trib3 1456225_PM_x_at (2 h): 1.56
- FC Zfp295 1457552_PM_at (2 h): 1.74
- FC 1110032F04Rik 1456509_PM_at (7 h): 4.65
- FC 1200003I10Rik /// 1200015M12Rik /// A130040M12Rik /// E430024C06Rik 1427932_PM_s_at (7 h): 1.63
- FC 1300002K09Rik 1453234_PM_at (7 h): 1.98
- FC 1444265_PM_at (7 h): 1.53
- FC 1445668_PM_at (7 h): 1.55
- FC 1447396_PM_at (7 h): −1.73
- FC 1457594_PM_at (7 h): −1.52
- FC 1459091_PM_at (7 h): 3.52
- FC 2610034E01Rik 1460483_PM_at (7 h): 1.56
- FC Abcc4 1443870_PM_at (7 h): 2.09
- FC Abhd15 1453474_PM_at (7 h): 1.64
- FC Acsl4 1451828_PM_a_at (7 h): 1.78
- FC Agps 1434919_PM_at (7 h): −1.68
- FC Agxt2l1 1452975_PM_at (7 h): −1.74
- FC Akr1b8 (1448894_PM_at) (7 h): 1.86
- FC Akr1c19 (1455454_PM_at) (7 h): 1.97
- FC Alas1 1424126_PM_at (7 h): 1.51
- FC Alcam 1426300_PM_at (7 h): 2.66
- FC Alcam 1426301_PM_at (7 h): 2.09
- FC Alcam 1437467_PM_at (7 h): 2.00
- FC Aldh1a7 (1418601_PM_at) (7 h): 2.16
- FC Aox1 (1419435_PM_at) (7 h): 2.50
- FC Asns 1433966_PM_x_at (7 h): 2.13
- FC Asns 1451095_PM_at (7 h): 2.23
- FC Atp13a3 1442145_PM_at (7 h): 1.52
- FC BC037032 1444682_PM_at (7 h): 1.69
- FC Bcat1 1430111_PM_a_at (7 h): −1.59
- FC Bcat1 1450871_PM_a_at (7 h): −1.83
- FC Bcat1 1455699_PM_at (7 h): −2.29
- FC Blvrb (1451386_PM_at) (7 h): 1.83
- FC Btg1 1442018_PM_at (7 h): 1.60
- FC Cbr1 (1460196_PM_at) (7 h): 1.58
- FC Cbr3 (1427912_PM_at) (7 h): 9.54
- FC Cenpe 1435005_PM_at (7 h): −1.60
- FC Cml3 1421609_PM_a_at (7 h): −1.64
- FC Copg2as2 1427123_PM_s_at (7 h): 1.56
- FC Ctps 1416563_PM_at (7 h): 1.57
- FC Cul9 1439866_PM_at (7 h): −1.52
- FC Cyp51 1422533_PM_at (7 h): −1.54
- FC Cyp51 1422534_PM_at (7 h): −1.59
- FC D16Ertd778e 1445089_PM_at (7 h): −1.87
- FC D330040H18Rik 1444432_PM_at (7 h): 1.77
- FC Dbp (1418174_PM_at) (7 h): −1.73
- FC Dbp (1438211_PM_s_at) (7 h): −1.63
- FC Ddit4l 1439332_PM_at (7 h): 1.83
- FC Ddit4l 1444139_PM_at (7 h): 1.85
- FC Ddit4l 1451751_PM_at (7 h): 2.62
- FC Dnase2a (1430135_PM_at) (7 h): 2.20
- FC Dusp5 1437199_PM_at (7 h): 1.74
- FC Eif4ebp1 1434976_PM_x_at (7 h): 1.56
- FC Endou 1449937_PM_at (7 h): 1.52
- FC Esr1 1460591_PM_at (7 h): −1.54
- FC Fam107a 1435918_PM_at (7 h): −1.77
- FC Fbxl2 1428427_PM_at (7 h): −1.68
- FC Fgf1 1441042_PM_at (7 h): −1.71
- FC Fgf1 1450869_PM_at (7 h): −1.76
- FC Fgfbp1 1419086_PM_at (7 h): 1.73
- FC Frem2 1457038_PM_at (7 h): −1.66
- FC G0s2 1448700_PM_at (7 h): 1.50
- FC G6pd2 /// G6pdx 1422327_PM_s_at (7 h): 1.86
- FC G6pdx (1448354_PM_at) (7 h): 1.75
- FC Gclc (1424296_PM_at) (7 h): 1.87
- FC Gclc (1455959_PM_s_at) (7 h): 1.81
- FC Gclm 1418627_PM_at (7 h): 1.64
- FC Gdf15 1418949_PM_at (7 h): 1.98
- FC Gimap3 1449220_PM_at (7 h): −1.51
- FC Gjb1 1448766_PM_at (7 h): 1.50
- FC Gk5 1436210_PM_at (7 h): 1.55
- FC Gm129 1435188_PM_at (7 h): −2.12
- FC Gm3776 /// Gsta1 /// Gsta2 1421041_PM_s_at (7 h): 1.63
- FC Gpr135 1441944_PM_s_at (7 h): 1.66
- FC Gpr135 1459274_PM_at (7 h): 1.53
